# Columns and labels:
# [1] = tested on: morningglory; test: Test A pre-emergence; format: in vivo, Ipomoea spp.; design: key: 0 = no effect, 10 = maximum effect; letter = response symbol; conditions: 0.4 kg/ha
# Method in brief: (§1)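 Seeds and tubers were treated preemergence in a growth medium with compound in a nonphytotoxic solvent, against untreated controls; emerged plants such as two-leaf barnyardgrass and five-leaf cotton were sprayed postemergence, against solvent-sprayed controls. After sixteen days in a greenhouse, response was rated visually from 0 to 10.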
# [2] = tested on: cassia; test: Test A pre-emergence; format: in vivo, Cassia tora; design: key: 0 = no effect, 10 = maximum effect; letter = response symbol; conditions: 0.4 kg/ha
# Method in brief: as §1
# [3] = tested on: nutsedge; test: Test A pre-emergence; format: in vivo, Cyperus rotundus; conditions: 0.4 kg/ha
# From the text: The activity of these compounds was discovered in a number of greenhouse and field tests. The ratings are based on a numerical scale extending from 0=no effect, to 10=maximum effect. The accompanying descriptive symbols have the following meanings:
# Seeds of crabgrass (Digitaria spp.), barnyardgrass (Echinochloa crusgalli), wild oats (Avena fatua), cassia (Cassia tora), morningglory (Ipomoea spp.), cocklebur (Xanthium spp.), sorghum, corn, soybean, rice, wheat and nutsedge tubers (Cyperus rotundus) were planted in a growth medium and treated preemergence with a nonphytotoxic solvent solution of the compounds of Table XII. Other batches of seeds and tubers for all of the foregoing weed and crop plants were planted at the same time as controls. The control plantings were untreated; i.e., neither any compound nor any solvent was applied. At the same time, cotton having five leaves (including cotyledonary ones), bush beans with the third trifoliate leaf expanding, crabgrass with two leaves, barnyardgrass with two leaves, wild oats with two leaves, cassia with three leaves (including cotyledonary ones), morningglory with four leaves (including the cotyledonary ones), cocklebur with four leaves (including the cotyledonary ones), sorghum with four leaves, corn with four leaves, soybean with two cotyledonary leaves, rice with three leaves, wheat with one leaf, and nutsedge with three-five leaves were sprayed with a nonphytotoxic solvent solution of the compounds of Table XII. Other groups of all the same weed and crop plants were sprayed with the same nonphytotoxic solvent so as to provide control plants. Preemergence and postemergence treated plants and controls were maintained in a greenhouse for sixteen days, then all treated plants were compared with their respective controls and rated visually for response to treatment.
# [4] = tested on: crabgrass; test: Test A pre-emergence; format: in vivo, Digitaria spp.; design: key: 0 = no effect, 10 = maximum effect; letter = response symbol; conditions: 0.4 kg/ha
# Method in brief: as §1
# [5] = tested on: barnyardgrass; test: Test A pre-emergence; format: in vivo, Echinochloa crusgalli; design: key: 0 = no effect, 10 = maximum effect; letter = response symbol; conditions: 0.4 kg/ha
# Method in brief: as §1
# [6] = tested on: wild oats; test: Test A pre-emergence; format: in vivo, Avena fatua; design: key: 0 = no effect, 10 = maximum effect; letter = response symbol; conditions: 0.4 kg/ha
# Method in brief: as §1
# [7] = tested on: corn; test: Test A pre-emergence; format: in vivo; design: key: 0 = no effect, 10 = maximum effect; letter = response symbol; conditions: 0.4 kg/ha
# Method in brief: as §1
# [8] = tested on: rice; test: Test A pre-emergence; format: in vivo; design: key: 0 = no effect, 10 = maximum effect; letter = response symbol; conditions: 0.4 kg/ha
# Method in brief: as §1
# [9] = tested on: sorghum; test: Test A pre-emergence; format: in vivo; design: key: 0 = no effect, 10 = maximum effect; letter = response symbol; conditions: 0.4 kg/ha
# Method in brief: as §1
# [10] = tested on: soybean; test: Test A pre-emergence; format: in vivo; design: key: 0 = no effect, 10 = maximum effect; letter = response symbol; conditions: 0.4 kg/ha
# Method in brief: as §1
# [11] = tested on: wheat; test: Test A pre-emergence; format: in vivo; design: key: 0 = no effect, 10 = maximum effect; letter = response symbol; conditions: 0.4 kg/ha
# Method in brief: as §1
# [12] = tested on: mustard; test: Test E pre-emergence; format: in vivo, Brassica arvensis
# From the text: (§2) The containers used were 25 cm diameter plastic pots filled with fertilized and limed Fallsington silt loam. Plantings of the following weed species were made twice, at a 10-day interval: mustard (Brassica arvensis), cocklebur (Xanthium spp.), morningglory (Ipomoea hederacea), cassia (Cassia tora), velvetleaf (Abutilon theophrasti), alfalfa (used as an indicator species), kochia (Kochia scoparia), sesbania (Sesbania exaltata), Russian thistle (Salsola kali), jimsonweed (Datura stramonium),and nutsedge (Cyperus rotundus). In addition, wheat and barley were planted in separate 15 cm diameter plastic pots filled with the same soil at the time of the early planting only. All plantings were treated with the test chemicals dissolved in a non-phytotoxic solvent immediately following completion of the second planting operation. At this time, the wheat was around 15-17.5 cm tall and the barley 12.5 to 15 cm tall, both in the 2-leaf stage of growth. The weed species of the earliest planting date were from 2.5 to 12.5 cm tall. The rates of application selected were 0.004, 0.007, 0.015 and 0.030 kg/ha for the weed phase and 0.12, 0.25 and 0.50 kg/ha for wheat and barley. The post-emergence part of this test was visually rated for plant response 21 days after treatment, and the pre-emergence part 28 days after treatment.
# [13] = tested on: morningglory; test: Test E pre-emergence; format: in vivo, Ipomoea hederacea
# From the text: as §2
# [14] = tested on: velvetleaf; test: Test E pre-emergence; format: in vivo, Abutilon theophrasti
# From the text: as §2
# [15] = tested on: alfalfa; test: Test E pre-emergence; format: in vivo; conditions: 1/256 kg/ha
# From the text: as §2
# [16] = tested on: kochia; test: Test E pre-emergence; format: in vivo, Kochia scoparia
# From the text: as §2
# [17] = tested on: Russian thistle; test: Test E pre-emergence; format: in vivo, Salsola kali
# From the text: as §2
# [18] = tested on: nutsedge; test: Test E pre-emergence; format: in vivo, Cyperus rotundus
# From the text: as §2
# [19] = tested on: purple nutsedge; test: Test F soil surface spray; format: in vivo, Cyperus rotundus; conditions: .032 kg/ha
# From the text: (§3) Purple nutsedge tubers (Cyperus rotundus) were planted about 2 cm deep in Fallsington silt loam contained in plastic pots 10 cm in diameter. Five tubers were put in each pot. Compounds of this invention were sprayed dissolved in a non-phytotoxic solvent at a volume rate of 560 l/ha. in four different methods of treatment, i.e., soil surface spray, tuber/soil spray, soil incorporated and post-emergence. For the soil surface spray, the compounds were sprayed on the firmed soil surface immediately after planting. For the tuber/soil spray, the compounds were sprayed on the exposed tubers and subtending soil before the untreated covering soil was added. Soil incorporation treatments were mixed in the covering soil. Post-emergence treatments were sprayed on the nutsedge foliage and surrounding soil surface after the nutsedge had emerged and had reached the height of about 12 cm.
# (§4) Immediately after spraying the surface spray, tuber/soil spray and soil incorporated treatments were misted with about 0.3 cm of water over a 90 minute period and then placed in the greenhouse. Post-emergence treatments were placed directly into the greenhouse and watered carefully so that treatments would not be washed from the foliage.
# [20] = tested on: purple nutsedge; test: Test F tuber/soil spray; format: in vivo, Cyperus rotundus; conditions: .032 kg/ha
# From the text: as §3, §4
# [21] = tested on: purple nutsedge; test: Test F soil incorporated; format: in vivo, Cyperus rotundus; conditions: .032 kg/ha
# From the text: as §3, §4
# [22] = tested on: purple nutsedge; test: Test F post-emergence; format: in vivo, Cyperus rotundus
# From the text: as §3, §4
Structure (SMILES),response rating [1],response rating [3],response rating [4],response rating [5],response rating [6],response rating [7] [G],response rating [8],response rating [9],response rating [10],response rating [11],also measured
COC(=O)c1ccccc1S(=O)(=O)NC(=O)N(C)c1nc(C)cc(C)n1 [drawing 486],0,0,3G,2G,0,3,8H,4G,0,4H,response rating [2]: 0
CCCCCCCCCCOC(=O)c1ccccc1S(=O)(=O)NC(=O)Nc1nc(OC)nc(OC)n1 [drawing 496],4G,0,0,0,0,2,0,2H,1C,0,
CCCCCCCCCCOC(=O)c1ccccc1S(=O)(=O)NC(=O)Nc1nc(C)nc(OC)n1 [drawing 497],0,2G,2G,0,0,4,0,3G,0,0,
COc1nc(C)nc(NC(=O)NS(=O)(=O)c2ccccc2C(=O)OC(C)C)n1 [drawing 588],,,,,,,,,,,response rating ([12]; 1/32 kg/ha): 10C; response rating ([12]; 1/64 kg/ha): 10C; response rating ([12]; 1/128 kg/ha): 10C; response rating ([12]; 1/256 kg/ha): 10C; response rating ([13]; 1/32 kg/ha): 10C; response rating ([13]; 1/64 kg/ha): 10C; response rating ([14]; 1/32 kg/ha): 10C; response rating ([14]; 1/64 kg/ha): 10C; response rating [15]: 7G; response rating ([16]; 1/32 kg/ha): 10C; response rating ([16]; 1/64 kg/ha): 10C; response rating ([16]; 1/128 kg/ha): 10C; response rating ([17]; 1/32 kg/ha): 10C; response rating ([17]; 1/64 kg/ha): 10C; response rating ([17]; 1/128 kg/ha): 8C; response rating ([17]; 1/256 kg/ha): 7C; response rating ([18]; 1/32 kg/ha): 8G; response rating ([18]; 1/64 kg/ha): 8G
COC(=O)c1ccccc1S(=O)(=O)NC(=O)Nc1ncccn1 [drawing 596],,,,,,,,,,,response rating after 4 weeks [19]: 0; response rating after 4 weeks [20]: 2G; response rating after 4 weeks [21]: 0; response rating after 4 weeks ([22]; .032 kg/ha): 0; response rating after 4 weeks ([22]; .125 kg/ha): 9C
